# Species on record: Rattus norvegicus
# Assay: Open TG-GATES - Regimen: Single
# Type: toxicity, organism-based, Sprague-Dawley
# Parameters: regimen Single, gender Male, age 6 weeks
# Settings: in vivo, po, 25 mg/kg, route gavage, dose level Low; for APTT / Bas / Eos / Fbg / Hb / Ht / Lym / MCH / MCHC / MCV / Mono / Neu / PT / Plat / RBC / Ret / WBC: tissue Blood; for KIDNEY_L / KIDNEY_R / KIDNEY_TOTAL: tissue Kidney; for LIVER: tissue Liver; for ALP / ALT / AST / BUN / CRE / DBIL / GLC / K / Na / PL / RALB / TBIL / TC / TG / TP / gamma-GTP: tissue Plasma
smiles,measurement,setting,value
CN1C(=O)CN=C(c2ccccc2)c2cc(Cl)ccc21 [DIAZEPAM],TERMINAL_BW,3 h,218.9 g
same,APTT,3 h,16.3 s
same,Bas,3 h,0%
same,Eos,3 h,1.2%
same,Fbg,3 h,227 mg/dL
same,Hb,3 h,13.9 g/dL
same,Ht,3 h,41.8%
same,Lym,3 h,76.6%
same,MCH,3 h,21.8 pg
same,MCHC,3 h,33.2%
same,MCV,3 h,65.8 fL
same,Mono,3 h,7.8%
same,Neu,3 h,14.8%
same,PT,3 h,12.4 s
same,Plat,3 h,98.7 x10_4/uL
same,RBC,3 h,636.6 x10_4/ul
same,Ret,3 h,8.7%
same,WBC,3 h,93.5 x10_2/uL
same,KIDNEY_L,3 h,1 g
same,KIDNEY_R,3 h,1 g
same,KIDNEY_TOTAL,3 h,1.9 g
same,LIVER,3 h,10.3 g
same,ALP,3 h,763.4 IU/L
same,ALT,3 h,30 IU/L
same,AST,3 h,57.8 IU/L
same,BUN,3 h,13.2 mg/dL
same,CRE,3 h,0.5 mg/dL
same,DBIL,3 h,0.018 mg/dL
same,GLC,3 h,195.4 mg/dL
same,K,3 h,5.3 meq/L
same,Na,3 h,139 meq/L
same,PL,3 h,150.2 mg/dL
same,RALB,3 h,3.7 g/dL
same,TBIL,3 h,0.4 mg/dL
same,TC,3 h,83.2 mg/dL
same,TG,3 h,66.2 mg/dL
same,TP,3 h,5.5 g/dL
same,gamma-GTP,3 h,2 IU/L
same,TERMINAL_BW,6 h,216.1 g
same,APTT,6 h,16.3 s
same,Bas,6 h,0%
same,Eos,6 h,0.6%
same,Fbg,6 h,217 mg/dL
same,Hb,6 h,13.9 g/dL
same,Ht,6 h,42%
same,Lym,6 h,79.4%
same,MCH,6 h,21.6 pg
same,MCHC,6 h,33%
same,MCV,6 h,65.2 fL
same,Mono,6 h,5.6%
same,Neu,6 h,14.8%
same,PT,6 h,12.1 s
same,Plat,6 h,110.2 x10_4/uL
same,RBC,6 h,643.4 x10_4/ul
same,Ret,6 h,8.1%
same,WBC,6 h,117.8 x10_2/uL
same,KIDNEY_L,6 h,0.9 g
same,KIDNEY_R,6 h,1 g
same,KIDNEY_TOTAL,6 h,1.9 g
same,LIVER,6 h,9.8 g
same,ALP,6 h,989.8 IU/L
same,ALT,6 h,30.8 IU/L
same,AST,6 h,64.6 IU/L
same,BUN,6 h,12 mg/dL
same,CRE,6 h,0.5 mg/dL
same,DBIL,6 h,0.058 mg/dL
same,GLC,6 h,202.2 mg/dL
same,K,6 h,5.3 meq/L
same,Na,6 h,138.6 meq/L
same,PL,6 h,143.4 mg/dL
same,RALB,6 h,3.8 g/dL
same,TBIL,6 h,0.4 mg/dL
same,TC,6 h,77.2 mg/dL
same,TG,6 h,67.4 mg/dL
same,TP,6 h,5.7 g/dL
same,gamma-GTP,6 h,1 IU/L
same,TERMINAL_BW,9 h,212.2 g
same,APTT,9 h,16.6 s
same,Bas,9 h,0%
same,Eos,9 h,0.6%
same,Fbg,9 h,229.8 mg/dL
same,Hb,9 h,13.8 g/dL
same,Ht,9 h,41.7%
same,Lym,9 h,78.8%
same,MCH,9 h,21.6 pg
same,MCHC,9 h,33%
same,MCV,9 h,65.4 fL
same,Mono,9 h,6.2%
same,Neu,9 h,14.4%
same,PT,9 h,12.2 s
same,Plat,9 h,102.9 x10_4/uL
same,RBC,9 h,638.2 x10_4/ul
same,Ret,9 h,7.5%
same,WBC,9 h,107.6 x10_2/uL
same,KIDNEY_L,9 h,1 g
same,KIDNEY_R,9 h,1 g
same,KIDNEY_TOTAL,9 h,2 g
same,LIVER,9 h,9.4 g
same,ALP,9 h,723.6 IU/L
same,ALT,9 h,26 IU/L
same,AST,9 h,57.2 IU/L
same,BUN,9 h,12.4 mg/dL
same,CRE,9 h,0.6 mg/dL
same,DBIL,9 h,0.044 mg/dL
same,GLC,9 h,212.6 mg/dL
same,K,9 h,4.8 meq/L
same,Na,9 h,139.6 meq/L
same,PL,9 h,142 mg/dL
same,RALB,9 h,3.9 g/dL
same,TBIL,9 h,0.3 mg/dL
same,TC,9 h,83.8 mg/dL
same,TG,9 h,44.8 mg/dL
same,TP,9 h,5.7 g/dL
same,gamma-GTP,9 h,1.6 IU/L
same,TERMINAL_BW,24 h,227.7 g
same,APTT,24 h,16.3 s
same,Bas,24 h,0%
same,Eos,24 h,1%
same,Fbg,24 h,219.6 mg/dL
same,Hb,24 h,13.4 g/dL
same,Ht,24 h,40.4%
same,Lym,24 h,81%
same,MCH,24 h,21.7 pg
same,MCHC,24 h,33.1%
same,MCV,24 h,65.7 fL
same,Mono,24 h,5.6%
same,Neu,24 h,12.2%
same,PT,24 h,12.2 s
same,Plat,24 h,105.2 x10_4/uL
same,RBC,24 h,616 x10_4/ul
same,Ret,24 h,8.5%
same,WBC,24 h,100.5 x10_2/uL
same,KIDNEY_L,24 h,1 g
same,KIDNEY_R,24 h,1.1 g
same,KIDNEY_TOTAL,24 h,2.1 g
same,LIVER,24 h,11.2 g
same,ALP,24 h,1114.4 IU/L
same,ALT,24 h,33.8 IU/L
same,AST,24 h,63 IU/L
same,BUN,24 h,16.6 mg/dL
same,CRE,24 h,0.5 mg/dL
same,DBIL,24 h,0.016 mg/dL
same,GLC,24 h,185.6 mg/dL
same,K,24 h,5.1 meq/L
same,Na,24 h,140 meq/L
same,PL,24 h,152.8 mg/dL
same,RALB,24 h,3.7 g/dL
same,TBIL,24 h,0.3 mg/dL
same,TC,24 h,82.2 mg/dL
same,TG,24 h,108.6 mg/dL
same,TP,24 h,5.8 g/dL
same,gamma-GTP,24 h,1.2 IU/L

# — ChEMBL document CHEMBL3885861, “Open TG-GATES”
